Experimental data taken from patent US4965280A, “Antifungal carbinols” (E. I. Du Pont de Nemours and Company, priority 1989, dated 1990).
Values after ≈ are worked out from the molar mass of the structure shown.

How the values were obtained:
WILD RADISH = assay: Test E; assay type: in vivo, Raphanus raphanistrum
GREEN FOXTAIL = assay: Test E; assay type: in vivo, Setaria viridis
[1] = system: Candida albicans ATCC 11651; assay: In vitro antifungal MIC, microtiter broth dilution; settings: Candida albicans, ATCC11651, 24 h, read-out: MIC values, C. albicans, 30°, 24 hours
PARK WHEAT = assay: Test E; assay type: in vivo, Triticum aestivum cv. Park
Botrytis cinerea = assay: Example C bean grey mold; assay type: in vivo; settings: Botrytis cinerea, 24 h, 100 PPM; read-out: disease control rating, Ex. C
Method in brief: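 Broad bean seedlings; foliar spray to run-off. Cmpd 100 or 20 ppm in water + 250 ppm TREM 014, acetone 6% v/v final.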

JET RAPE = assay: Test E; assay type: in vivo, Brassica napus cv. Jet Neuf
Pythium aphanadermatum = assay: Example J cucumber damping off; assay type: in vivo; design: key to phytotoxicity entry, Ex. J: P: disease control was not measured due to phytoxicity; settings: 5 kg/ha
Method in brief: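 Seeds and soil were inoculated with a mix of sand, cereal and Pythium aphanadermatum mycelium, the fungus responsible for cucumber damping off. They were kept in a growth chamber at 30° C. for 14 days, and disease was then rated to assess control.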

Venturia inaequalis = assay: Example A apple scab; assay type: in vivo; settings: 100 PPM, read-out: disease control rating, Ex. A
Method in brief: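 Acetone solution (6% of final vol.) → suspension at 100 or 20 ppm in water + 250 ppm TREM 014 surfactant; sprayed to run-off on apple seedlings.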

[2] = system: Aspergillus fumigatus ATCC 28214; assay: In vitro antifungal MIC, microtiter broth dilution; settings: Aspergillus fumigatus, ATCC28214, 24 h, read-out: MIC values, A. fumigatus, 30°, 24 hours
CTCHWD BEDSTRAW = assay: Test E; assay type: in vivo, Galium aparine
[3] = system: Fusarium oxysporum f. sp. cucumerinum; assay: Example L cucumber wilt; assay type: in vivo; settings: 336 h, 5 kg/ha, read-out: disease control rating, Ex. L
Description: […] Seeds and soil were then inoculated with a mixture of sand, cereal and mycelium of the fungus Fusarium oxysporum f. sp. cucumerinum, causal agent of cucumber wilt, and incubated in a growth chamber at 30° C. for 14 days. Disease ratings were then made.

YELLOW NUTSEDGE = assay: Test C rice paddy; assay type: in vivo, Cyperus esculentus; settings: 21 days
Source text: (§1) Sixteen cm diameter Airlite plastic pots were partially filled with Tama slit loam soil and the soil saturated with water. Japonica and Indica rice seedlings a the 2.0 to 2.5 leaf stage were transplanted into 1/3 of the pots. Into another third of the pots were transplanted seedling or sprouted tubers of water plantain (Alisma trivale), Scripus (Scirpus paludosus), Cyperus (Cyperus esculentus), and arrowhead (Sagittaria spp.). The remaining pots were planted with barnyardgrass (Echinochloa crusgalli) seeds and sprouted tubes of water chestnut (Eleocharis spp.). These weeds all represent major rice weeds or genera of weeds important in rice. Three to four days after planting, the water level was raised to 3 cm (about 1200 ml/pot) and maintained a this level throughout the test. Chemical treatments were applied directly to the paddy water, within 24 hours of raising the water, after being formulated in a nonphytotoxic solvent. The pots were maintained in the greenhouse.

SCIRPUS = assay: Test C rice paddy; assay type: in vivo, Scirpus paludosus; settings: Bolboschoenus maritimus, 504 h, 21 days, read-out: plant response
Source text: as §1

WATERCHESTNUT = assay: Test C rice paddy; assay type: in vivo, Eleocharis spp.; settings: Eleocharis, 504 h, 21 days, read-out: plant response
Source text: as §1

WATER PLAINTAIN = assay: Test C rice paddy; assay type: in vivo, Alisma trivale; settings: 504 h, 21 days, read-out: plant response
Source text: as §1

RICE INDICA EFF = assay: Test C rice paddy; assay type: in vivo; settings: Oryza sativa, 504 h, 21 days, read-out: plant response
Source text: as §1

Compound `C=C(c1ccccc1)C(O)(Cn1cncn1)c1ccc(Cl)cc1` (stereo not shown) [Example 51, 2-(4-Chlorophenyl)-3-phenyl-1-(1H-1,2,4-triazol-1-yl)-3-buten-2-ol] has a plant response (WILD RADISH; POSTEMERGENCE 0064 GM/HA) of 0%, a plant response (WILD RADISH; POSTEMERGENCE 0125 GM/HA) of 30% and a plant response (WILD RADISH; POSTEMERGENCE 0250 GM/HA) of 30%. For the same compound, the plant response (WILD RADISH; POSTEMERGENCE 0500 GM/HA) was 60%, the plant response (WILD RADISH; PREEMERGENCE 0500 GM/HA) was 0% and the plant response (GREEN FOXTAIL; POSTEMERGENCE 0064 GM/HA) was 0%. For the same compound, the plant response (GREEN FOXTAIL; POSTEMERGENCE 0125 GM/HA) was 0%, the plant response (GREEN FOXTAIL; POSTEMERGENCE 0250 GM/HA) was 0% and the plant response (GREEN FOXTAIL; POSTEMERGENCE 0500 GM/HA) was 0%. It also gave a plant response (GREEN FOXTAIL; PREEMERGENCE 0500 GM/HA) of 100%, an MIC [1] of 0.03 µg/mL (≈ 0.0921 µM) and a plant response (PARK WHEAT; POSTEMERGENCE 0064 GM/HA) of 0%. The plant response (PARK WHEAT; POSTEMERGENCE 0125 GM/HA) was 0%, the plant response (PARK WHEAT; POSTEMERGENCE 0250 GM/HA) was 0% and the plant response (PARK WHEAT; POSTEMERGENCE 0500 GM/HA) was 0%. It also gave a plant response (PARK WHEAT; PREEMERGENCE 0500 GM/HA) of 0%, a pest or weed control at 100 ppm (Botrytis cinerea) of 96% and a plant response (JET RAPE; POSTEMERGENCE 0064 GM/HA) of 0%. The plant response (JET RAPE; POSTEMERGENCE 0125 GM/HA) was 0%, the plant response (JET RAPE; POSTEMERGENCE 0250 GM/HA) was 0% and the plant response (JET RAPE; POSTEMERGENCE 0500 GM/HA) was 20%. For the same compound, the plant response (JET RAPE; PREEMERGENCE 0500 GM/HA) was 0%, the “phytotoxicity entry, Ex. J” value (Pythium aphanadermatum) was “P” and the pest or weed control at 100 ppm (Venturia inaequalis) was 100%. The MIC [2] was 3.2 µg/mL (≈ 9.82 µM), the plant response (CTCHWD BEDSTRAW; POSTEMERGENCE 0064 GM/HA) was 0% and the plant response (CTCHWD BEDSTRAW; POSTEMERGENCE 0125 GM/HA) was 0%. The plant response (CTCHWD BEDSTRAW; POSTEMERGENCE 0250 GM/HA) was 0%, the plant response (CTCHWD BEDSTRAW; POSTEMERGENCE 0500 GM/HA) was 50% and the plant response (CTCHWD BEDSTRAW; PREEMERGENCE 0500 GM/HA) was 0%.
Work on `C=C(c1ccccc1Cl)C(O)(Cn1cncn1)c1ccc(F)cc1F` (stereo not shown) [Example 35] yielded an MIC [1] of 0.03 µg/mL (≈ 0.0829 µM), a pest or weed control at 5000 g/ha [3] of 0% and a pest or weed control at 100 ppm (Botrytis cinerea) of 96%. It also gave a plant response (YELLOW NUTSEDGE; 0064 G/HA) of 0, a plant response (YELLOW NUTSEDGE; 0125 G/HA) of 0 and a plant response (YELLOW NUTSEDGE; 0250 G/HA) of 60. It also gave a plant response (YELLOW NUTSEDGE; 0500 G/HA) of 95, a plant response (YELLOW NUTSEDGE; 1000 G/HA) of 100 and a pest or weed control at 5000 g/ha (Pythium aphanadermatum; Pythium, 336 h, read-out: disease control rating, Ex. J) of 0%. The pest or weed control at 64 g/ha (SCIRPUS; 0064 G/HA) was 0%, the pest or weed control at 125 g/ha (SCIRPUS; 0125 G/HA) was 0% and the pest or weed control at 250 g/ha (SCIRPUS; 0250 G/HA) was 0%. The pest or weed control at 500 g/ha (SCIRPUS; 0500 G/HA) was 0%, the pest or weed control at 1000 g/ha (SCIRPUS; 1000 G/HA) was 50% and the pest or weed control at 64 g/ha (WATERCHESTNUT; 0064 G/HA) was 60%. For the same compound, the pest or weed control at 125 g/ha (WATERCHESTNUT; 0125 G/HA) was 40%, the pest or weed control at 250 g/ha (WATERCHESTNUT; 0250 G/HA) was 60% and the pest or weed control at 500 g/ha (WATERCHESTNUT; 0500 G/HA) was 0%. For the same compound, the pest or weed control at 1000 g/ha (WATERCHESTNUT; 1000 G/HA) was 0%, the pest or weed control at 64 g/ha (WATER PLAINTAIN; 0064 G/HA) was 0% and the pest or weed control at 125 g/ha (WATER PLAINTAIN; 0125 G/HA) was 0%. For the same compound, the pest or weed control at 250 g/ha (WATER PLAINTAIN; 0250 G/HA) was 40%, the pest or weed control at 500 g/ha (WATER PLAINTAIN; 0500 G/HA) was 40% and the pest or weed control at 1000 g/ha (WATER PLAINTAIN; 1000 G/HA) was 60%. The pest or weed control at 100 ppm (Venturia inaequalis) was 100%, the MIC [2] was 0.1 µg/mL (≈ 0.276 µM) and the pest or weed control at 64 g/ha (RICE INDICA EFF; 0064 G/HA) was 0%. For the same compound, the pest or weed control at 125 g/ha (RICE INDICA EFF; 0125 G/HA) was 0%, the pest or weed control at 250 g/ha (RICE INDICA EFF; 0250 G/HA) was 0% and the pest or weed control at 500 g/ha (RICE INDICA EFF; 0500 G/HA) was 0%. For the same compound, the pest or weed control at 1000 g/ha (RICE INDICA EFF; 1000 G/HA) was 20%.
